The text below walks through data of patent US4362736A, “Guanidinothiazole compounds, and medical compositions containing them” (Yamanouchi Pharmaceutical Co., Ltd., priority 1979, dated 1982).

Data set [1] can be described thus: Acute toxicity in mice. The following applies: mouse, in vivo, iv, 7 days observation, up and down method; read-out: (C) LD50 in mice. As for the experimental part: Drugs were injected intravenously in male ICR mice weighing about 35 g at a rate of 0.1 ml/10 g/10 sec and the animals were kept under observation for 7 days. LD50 values were determined by the up and down method using 10 animals. The data are shown in Table I, under column entitled (C).

The subject of data set [2] is Gastric acid secretion. Nature of the data set: Gastric acid secretion in pylorus-ligated rats. Type of data set: in vivo, Male Wister rats. As to conditions: Rattus norvegicus, intraduodenal, 4 hrs., probit method, read-out: (B) Pylorus-ligated rats ED50. On the procedure:
Male Wister rats weighing about 200 g were deprived of food for 24 hrs. but allowed free access to water prior to the experiments in individual cages. […] Test compounds were intraduodenally given immediately after the ligation of pylorus. The animals were sacrificed 4 hrs. after drug administration and gastric contents were collected. […] The percent inhibition of gastric secretion by each dose of drugs was calculated from the acid outputs of control and of treated groups. ED50 values were determined by the probit method.

Data set [3] relates to Gastric acid secretion. Description: Gastric acid secretion in anesthetized dogs (histamine-induced). As to conditions: Canis lupus familiaris, iv, histamine infusion 160 μg/Kg-hr, dose producing 50% inhibition of acid output. The class given is in vivo, Mongrel dogs. As for the experimental part:
Mongrel dogs weighing 8 to 15 Kg were deprived of food for 24 hrs. and anesthetized intravenously with pentobarbital (30 mg/Kg). […] The gastric juice was collected from the gastric cannula by gravity drainage every 15 min. Test compounds were given intravenously after gastric secretion induced by a continuous intravenous infusion of histamine (160 μg/Kg-hr) reached a steady state.

Data set [4] concerns H2 -receptor. The following applies: Ash and Schild; Black et al.; cited from earlier work.

Where a name gives a salt, the structure may show the parent alone.

What is called LD50 is the dose expected to kill half of the subjects tested. A word on the ED50: it is the dose that gives a 50% effect, or the effect in half of the subjects. For `N#CNC(=N)CCSCc1csc(NC(=N)N)n1` [Example 3, N-cyano-3-[(2-guanidinothiazol-4-yl)methylthio]propionamidine], in data set [1], the LD50 at 168 h was 147 mg/kg. Moreover, the ED50 in data set [2] was found to be 13.8 mg/kg; in data set [3], 0.0183 ± 0.0007 mg/kg.

With `NC(=O)N=C(N)CCSCc1csc(N=C(N)N)n1` [Example 9, N-carbamoyl-3-[(2-guanidinothiazol-4-yl)methylthio]propionamidine.di-hydrochloride], the LD50 at 168 h in data set [1] came out at 97.8 mg/kg. The median effective dose (ED50) in data set [2] was 12.7 mg/kg; in data set [3], 0.0064 ± 0.0006 mg/kg.

Regarding `COc1ccc(CN(CCN(C)C)c2ccccn2)cc1` [mepyramine], in data set [4], the “inhibition of histamine effects on gastric acid secretion and heart rate in isolated guinea pig atrium” value is “not inhibited”.

Take `C/N=C(\S)NCCSCc1[nH]cnc1C` [metiamide]: the “inhibition of histamine effects on gastric acid secretion and heart rate in isolated guinea pig atrium” value in data set [4] was “antagonized”.
